Columns and labels:
HER2 receptor [1] = test: HER2 scFv ligand internalization in cell-based assay (pHrhodo label); design: species or system human; details: MCF7 HER2- cell line; FIG. 1F
Method: (§1) As proof of concept, HER2 scFv binding and internalization in cell-based assays in vitro was carried out.

HER2 receptor [2] = molecular target: T1, HER2 receptor (Homo sapiens, UniProt P04626); test: as above
T1 construct: endogenous in cells; host or cells: Sk-BR3, Sk-OV3 (HER2+); MCF7 (HER2-, negative control)
Method: as §1

HER2 receptor [3] = test: HER2 scFv binding in cell-based assay (Alexa-fluor 488 labeled scFv); design: species or system human
Method: as §1

trastuzumab-derived α-HER2 scFv: trastuzumab-derived single-chain variable fragment directed against HER2 (SEQ ID NO:1 core sequence)
ligand internalization (HER2 receptor [1]): did not
ligand internalization (HER2 receptor [2]; Sk-BR3 cells (HER2+), FIG. 1D): showed ligand internalization
ligand internalization (HER2 receptor [2]; Sk-OV3 cells (HER2+), FIG. 1E): showed ligand internalization
HER2 receptor engagement (HER2 receptor [3]; MCF7 cells, do not express HER2 receptor (HER2-), FIG. 1C): not in MCF7 cells
HER2 receptor engagement (HER2 receptor [3]; Sk-BR3 HER2 expressing (HER2+) cell line, FIG. 1A): HER2 receptor engagement
HER2 receptor engagement (HER2 receptor [3]; Sk-OV3 HER2 expressing (HER2+) cell line, FIG. 1B): HER2 receptor engagement

— patent US20240382432A1, “SINGLE CHAIN VARIABLE FRAGMENT (SCFV) MODIFIED LIPID NANOPARTICLE COMPOSITIONS AND USES THEREOF” (Generation Bio Co., priority 2021, published 2024)
